Consider one molecule from patent US20170096426A1 (published 2017).

The term melting point denotes the temperature of the solid-liquid transition. `CCCCCn1c2ccccc2c2cc(C(=O)c3ccccc3)ccc21` yielded a melting point of 116 to 117 °C.
